*1 amine or outer side, *2 acyl side, *3 side chain or, on linkers, in order; H or OH if unused. Where a SMILES comes first, the peptide text is derived from it. Bridges are numbered along the chain shown (N, C = ends). [ ]: non-standard residue; d: D form. Adda = CO[C@@H](Cc1ccccc1)[C@@H](C)/C=C(C)/C=C/[C@H](N[*:1])[C@H](C)C(=O)[*:2]; dAsp(3S-Me) = C[C@H](C(=O)[*:3])[C@@H](N[*:1])C(=O)[*:2]; d(γGlu) = O=C(O)[C@@H](CCC(=O)[*:2])N[*:1]; hTyr = N[C@@H](CCc1ccc(O)cc1)C(=O)O; NMeA = CN[C@@H](C)C(=O)O; NMeDha = C=C(NC)C(=O)O; CO = O=C([*:1])[*:2]
What was measured:
[1] = test system: River Chriesbach river water
[2] = test system: River Chriesbach biofilm suspension (100%, 10%, 1%)
[3] = test system: River Chriesbach biofilm suspension
[4] = test system: River Chriesbach biofilm suspension (100%)
[5] = test system: River Chriesbach biofilm suspensions

Compound	1d removal, River water [1] [%]	Half-lives (h), River water [1]	1d removal, 1% biofilm [2] [%]	1d removal, 10% biofilm [2] [%]	1d removal, 100% biofilm [2] [%]	Half-lives (h), 10% biofilm [2]	Half-lives (h), 100% biofilm [2] [h]	removal within 3 days [3]	1.3d removal, 2% metabolite [4] [%]	1.3d removal, 10% metabolite [4] [%]	1.3d removal, 100% metabolite [4] [%]	Half-lives (h), 10% metabolite [4] [h]	Half-lives (h), 100% metabolite [4] [h]	Half-lives (h), 1% biofilm [2]	Lag-time (h), River water [1]	Lag-time (h), 100% biofilm [2] [h]	Half-lives (h), 2% metabolite [4] [h]	Lag-time (h), 2% metabolite [4] [h]	Lag-time (h), 10% metabolite [4] [h]	Lag-time (h), 100% metabolite [4] [h]	other results
CC[C@H](C)[C@@H]1NC(=O)[C@H](NC(=O)N[C@@H](CCCNC(=N)N)C(=O)O)CCCCNC(=O)[C@H](Cc2ccccc2)NC(=O)[C@H](C)N(C)C(=O)[C@H](CCc2ccc(O)cc2)NC1=O [Anabaenopeptin F] ({Arg-CO}-[dK]I[hTyr][NMeA]F; lactam 1-C)	-44	n.d.(decay)	-13	28	83	106.3 h	11.5	more than 50%	100	99	62	10.8	30.2	–	–	–	–	–	–	–	–
CC[C@H](C)[C@@H]1NC(=O)[C@H](NC(=O)N[C@@H](Cc2c[nH]c3ccccc23)C(=O)O)CCCCNC(=O)[C@H](Cc2ccccc2)NC(=O)[C@H](C)N(C)C(=O)[C@H](CCc2ccc(O)cc2)NC1=O [Ferintoic acid B] ({Trp-CO}-[dK]I[hTyr][NMeA]F; lactam 1-C)	–	–	–	–	–	–	–	–	–	–	–	–	–	–	–	–	–	–	–	–	biodegradability in biofilm suspensions (in words) [5]: did not show detectable biotransformation
C=C1C(=O)N[C@H](C)C(=O)N[C@@H](CCc2ccc(O)cc2)C(=O)N[C@@H](C(=O)O)[C@H](C)C(=O)N[C@@H](CCCNC(=N)N)C(=O)N[C@@H](/C=C/C(C)=C/[C@H](C)[C@H](Cc2ccccc2)OC)[C@H](C)C(=O)N[C@@H](C(=O)O)CCC(=O)N1C [MC-HtyR] (R[Adda][d(γGlu)][NMeDha][dA][hTyr][dAsp(3S-Me)]-OH; lactam N-7)	-36	n.d.(decay)	-13	19	17	n.d.(decay)	51.8	31%	33	14	9	–	70.4	n.d.(decay)	–	–	–	–	–	–	biodegradability in biofilm suspensions (in words) [5]: biodegradable
Aerucyclamide A	-23	n.d.(decay)	-14	-2	-2	n.d.(decay)	66.9	20%	64	43	21	34.9	56.9	n.d.(decay)	n.d.(decay)	66.8	28.4	28.0	34.8	56.9	Lag-time (h), 1% biofilm [2]: n.d.(decay); Lag-time (h), 10% biofilm [2]: n.d.(decay)
Anabaenopeptin 871	–	–	–	–	–	–	–	–	–	–	–	–	–	–	–	–	–	–	–	–	biodegradability in biofilm suspensions (in words) [5]: did not show detectable biotransformation
Anabaenopeptin A	-28	n.d.(decay)	-9	25	86	103.7 h	11.5	32-35%	100	98	46	13.4	34.9	177.1 h	n.d.(decay)	10.2	7.2	6.7	12.3	34.8	expected river water half-lives [1]: 8.6 to 10.6 days; Lag-time (h), 1% biofilm [2]: 98.1 h; Lag-time (h), 10% biofilm [2]: 102.8 h
Anabaenopeptin B	-23	n.d.(decay)	-11	23	85	111.9 h	10.4	–	100	99	62	11.2	30.0	–	n.d.(decay)	8.5	6.2	5.3	10.3	29.9	Lag-time (h), 10% biofilm [2]: 111.7 h; detectability at day 5 [3]: not detectable anymore; lag time (shoulder-log fitting) [3]: 2.3 days; initial removal at 1.3 days at decreased initial metabolite concentrations [4]: ~100%
Anabaenopeptin D	–	–	–	–	–	–	–	–	–	–	–	–	–	–	–	–	–	–	–	–	biodegradability in biofilm suspensions (in words) [5]: did not show detectable biotransformation
Cyanopeptolin 963A	-81	–	-26	5	56	–	–	32-35%	100	98	64	–	29.6	–	–	–	–	–	–	29.5	–
Cyanopeptolin 1020	–	129.5 h	–	31	91	64.2 h	9.0	–	100	100	94	8.3	9.9	112.1 h	–	6.7	6.2	5.7	8.3	0.4	degradation in ambient river water [1]: detectable degradation; lag time, ambient river water [1]: 5.4 days; lag time, 1% biofilm [2]: 4.1 days; lag time, 10% biofilm [2]: 2.5 days; detectability at day 5 [3]: not detectable anymore; lag time (shoulder-log fitting) [3]: 1.6 days
Cyanopeptolin A	3	n.d.(decay)	10	57	98	35.9 h	5.1	more than 50%	100	100	97	6.5	5.8	105.9 h	n.d.(decay)	0.8	–	–	6.1	0.0	Lag-time (h), 1% biofilm [2]: 89.7 h; Lag-time (h), 10% biofilm [2]: 0.0 h
Cyanopeptolin B	2	–	16	49	100	–	–	more than 50%	100	100	96	–	7.7	–	–	–	–	–	–	0.0	–
Cyanopeptolin C	-3	–	1	29	80	–	–	more than 50%	100	100	82	8.5	18.1	–	–	–	–	–	8.5	9.6	–
Cyanopeptolin D	11	n.d.(decay)	4	26	77	–	19.1	more than 50%	100	100	76	11.1	27.2	–	n.d.(decay)	18.7	7.4	7.3	10.5	27.2	–
Oscillamide Y	-24	n.d.(decay)	1	28	86	101.7 h	11.1	32-35%	100	98	51	12.8	33.9	191.5 h	n.d.(decay)	9.4	7.1	6.8	11.7	33.8	expected river water half-lives [1]: 7.2 to 8.0 days; Lag-time (h), 1% biofilm [2]: 0.0 h; Lag-time (h), 10% biofilm [2]: 99.6 h
